Test results taken from PubChem BioAssay (NCI).
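How tested: cells in 96-well plates exposed to compound for 48 hours at five concentrations. Abbreviation: GI50, concentration required for 50% inhibition of growth. At the TGI there is no net growth.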

Legend:
Experiment in all cases: DTP human tumour cell line panel, 48 h
[1] = test system: ACHN renal
[2] = test system: HCC-2998 colon
[3] = test system: K-562 leukemia
[4] = test system: NCI-H226 lung
[5] = test system: OVCAR-3 ovarian
[6] = test system: OVCAR-5 ovarian
[7] = test system: OVCAR-8 ovarian
[8] = test system: SK-MEL-28 melanoma

Compound	TGI [1]	TGI [2]	TGI [3]	TGI [4]	TGI [5]	TGI [6]	TGI [7]	TGI [8]	GI50 [1]	GI50 [2]	GI50 [3]	GI50 [5]	GI50 [6]	GI50 [7]	GI50 [8]
CC(C)(O)[C@@H]1CC[C@@]2(C)CCCC(O)C2(O)C1 (some centres undefined)	> 100 µM	> 100 µM	> 100 µM	> 100 µM	> 100 µM	> 100 µM	> 100 µM	> 100 µM							
COC(=O)C(Cc1cc(OC)c(OC)c(OC)c1)C(=O)OC	> 320 µM	> 320 µM	> 320 µM		> 320 µM	> 320 µM	> 320 µM	> 320 µM							
COc1ccc(NC(=O)C(=O)c2c(O)c3ccc(O)cc3oc2=O)c([N+](=O)[O-])c1	> 100 µM	> 100 µM	> 100 µM	> 100 µM	> 100 µM	> 100 µM		> 100 µM							
N#CCCN(c1ccc(C=Nc2ccccc2)cc1)S(=O)(=O)c1ccccc1		> 100 µM	> 100 µM	> 100 µM	> 100 µM		> 100 µM	> 100 µM							
O=C(N/C(=C\c1ccc(Cl)cc1)c1nc2ccccc2[nH]1)c1ccccc1	80.5 µM		38.8 µM	44.9 µM	49 µM	85 µM	52.8 µM	36.4 µM							
Cc1c(Cl)cccc1NC(=O)C(=O)C(C(=O)c1ccccc1-c1ccccc1)C1OC(=O)c2ccccc21 (centres undefined)		31.2 µM	> 100 µM	18.1 µM	33.8 µM	46.9 µM	> 100 µM	44.7 µM							
COC(=O)C(C(=O)C(=O)Nc1c(C)cccc1C)c1cnc2ccccc2n1 (centres undefined)	> 100 µM	> 100 µM	> 100 µM	> 100 µM		> 100 µM	> 100 µM	> 100 µM							
N.N.N.N.N.[Co+3].[I-].[N-]=[N+]=[N-]	> 100 µM	> 100 µM	> 100 µM		> 100 µM	> 100 µM	> 100 µM	> 100 µM	> 100 µM	> 100 µM	> 100 µM	> 100 µM	> 100 µM	> 100 µM	> 100 µM
COc1ccc(C2=C(Cl)c3cc(OC)c(OC)cc3C2OC)cc1OC (centres undefined)	> 100 µM	> 100 µM	52.7 µM	> 100 µM		> 100 µM	> 100 µM	> 100 µM							
N#Cc1c(-c2ccc(Cl)c(Cl)c2)c(-c2ccc(Cl)c(Cl)c2)nn(CC(=O)O)c1=O	> 100 µM	> 100 µM	> 100 µM	> 100 µM	77.4 µM	> 100 µM	> 100 µM	> 100 µM							
O=C1C2Nc3ccccc3SC2C(=O)N1c1ccc(Br)cc1 (centres undefined)	> 100 µM	> 100 µM	> 100 µM	92.4 µM	99.5 µM	> 100 µM	> 100 µM	> 100 µM							
C/C(=C1/N=C(c2cc([N+](=O)[O-])ccc2Cl)N(c2cccc(C)c2)C1=O)c1cc2ccccc2oc1=O	> 100 µM	> 100 µM	> 100 µM	> 100 µM	> 100 µM	> 100 µM	> 100 µM	> 100 µM							
COc1ccc(C/C(=N/O)C(=O)NCCc2cc(Br)c(OCCCN(C)C)c(Br)c2)cc1Br	30 µM	28.5 µM			40.4 µM	49.2 µM	49.1 µM	35.2 µM							
Cc1ccc(S(=O)(=O)OCCn2cnc3nc(NC(=O)c4ccccc4)[nH]c(=O)c32)cc1	> 100 µM		> 100 µM	> 100 µM	> 100 µM	> 100 µM	> 100 µM	> 100 µM							
COC(=O)CC(NC(=O)OCc1ccccc1)C(C(C)=O)C(=O)OCc1ccccc1 (centres undefined)	> 31.6 µM		> 31.6 µM		> 31.6 µM	> 100 µM	> 31.6 µM	> 31.6 µM							
CCCCCN(CCCCC)C(=O)[C@@H](CCC(=O)O)NC(=O)c1cc2ccccc2[nH]1	> 100 µM	> 100 µM	> 100 µM	> 100 µM	> 100 µM	> 100 µM	> 100 µM	57.5 µM							
Cn1cc(C(=O)c2ccccc2)c2ccccc2c1=O	> 100 µM	> 100 µM			> 100 µM		> 100 µM	> 100 µM							
CC(=O)OCC1OC(n2cc(F)c(=O)[nH]c2=O)C(NC(=O)N(CCCl)N=O)C(OC(C)=O)C1OC(C)=O (centres undefined)	> 100 µM		> 100 µM		> 100 µM		> 100 µM	> 100 µM							
Cn1c2c(c3ccccc31)CCN(CCCCN1CCCCC1)C2=O	> 100 µM		> 100 µM		> 100 µM	> 100 µM	> 100 µM	> 100 µM							
C[C@@H](NC1CCCC[C@H]1O)c1ccccc1 (some centres undefined)	> 100 µM	> 100 µM	> 100 µM	> 100 µM	> 100 µM		> 100 µM	> 100 µM							
Nc1ncnc2c1ncn2[C@]1(CO)C=C(CO)C(O)C1O (some centres undefined)	> 100 µM	> 100 µM		> 100 µM		> 100 µM		> 100 µM							
